Each compound was assayed against T1, cloned human CCR8 receptor stably expressed in L1.2 cells (Homo sapiens, UniProt P51685) (assay: whole cell binding screen: inhibition of biotinylated human I309 binding to CCR8 (FMAT 8100 HTS)). Settings: Ki of compounds to inhibit I-309 binding to CCR8, L1.2/hCCR8 cells, biotinylated human I-309, 10 point concentration response starting at 10 μM.
T1 construct: expressed in transfected cells
T1 sequence (P51685 whole entry): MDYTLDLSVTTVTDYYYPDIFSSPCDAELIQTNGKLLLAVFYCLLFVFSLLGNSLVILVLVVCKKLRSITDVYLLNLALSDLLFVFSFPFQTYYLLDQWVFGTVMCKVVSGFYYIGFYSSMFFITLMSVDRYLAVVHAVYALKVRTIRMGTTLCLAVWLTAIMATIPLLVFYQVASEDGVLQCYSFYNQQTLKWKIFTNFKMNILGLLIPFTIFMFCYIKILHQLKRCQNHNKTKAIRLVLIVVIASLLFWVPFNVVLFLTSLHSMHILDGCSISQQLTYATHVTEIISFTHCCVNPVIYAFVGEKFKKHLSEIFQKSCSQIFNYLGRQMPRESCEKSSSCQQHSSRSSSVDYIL
How it was run: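 L1.2 murine pre-B cells stably expressing human CCR8 (4.0×10^5 cells/mL) in HBSS/HEPES/fatty-acid-free BSA/azide buffer were mixed with biotinylated human I309 and compounds for 0.5 h, read by FMAT fluorescence. 10-point curves from 10 μM final; percent inhibition normalized to no-inhibitor and 100 nM unlabeled I309 controls.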
In the case of `CCOC(=O)N1CCC(NS(=O)(=O)c2ccc(NC(=O)c3ccccc3)c3ccccc23)CC1` [Compound A-34, 4-(4-Benzoylamino-naphthalene-1-sulfonylamino)-piperidine-1-carboxylic acid ethyl ester], the Ki is reported as less than 30000 nM. With `CCOC(=O)N1CCC(NS(=O)(=O)c2ccc(C(=O)Nc3ccccc3C)c3ccccc23)CC1` [Compound F-11, 4-(4-o-Tolylcarbamoyl-naphthalene-1-sulfonylamino)-piperidine-1-carboxylic acid ethyl ester] the Ki was less than 500 nM. With `CCCC(=O)N1CCC(NS(=O)(=O)c2ccc(NC(=O)C3CCCCC3)c3ccccc23)CC1` [Compound D-16, Cyclohexanecarboxylic acid [4-(1-butyryl-piperidin-4-ylsulfamoyl)-naphthalen-1-yl]-amide] the Ki was less than 500 nM.

Same assay, conditions: L1.2/hCCR8 cells, biotinylated human I-309, 10 point concentration response starting at 10 μM; read-out: Ki of compounds to inhibit I-309 binding to CCR8
`CCOC(=O)N1C[C@H](C)C(NS(=O)(=O)c2ccc(NC(=O)c3ccccc3C)c3ccccc23)[C@@H](C)C1` (racemic) [Compound C-67, (±)-(cistrans)-3,5-Dimethyl-4-[4-(2-methyl-benzoylamino)-naphthalene-1-sulfonylamino]-piperidine-1-carboxylic acid ethyl ester] gave a Ki of less than 500 nM. `CCOC(=O)N1CCC(NS(=O)(=O)c2ccc(NC(=O)c3ccccc3C)c3c2CN(CC)CC3)CC1` [Compound J-42, 4-[2-Ethyl-5-(2-methyl-benzoylamno)-1,2,3,4-tetrahydro-isoquinoline-8-sulfonylamino]-piperidine-1-carboxylic acid ethyl ester] showed a Ki of less than 500 nM. `CCOC(=O)c1ccc(NS(=O)(=O)c2cccc3c(NC(=O)c4ccccc4C)cccc23)cc1` [Compound H-19, 4-[5-(2-Methyl-benzoylamino)-naphthalene-1-sulfonylamino]-benzoic acid ethyl ester] was tested, and the Ki was less than 30000 nM. `CCOC(=O)N1CCC(NS(=O)(=O)c2cccc3c(C(=O)Nc4ccccc4)cccc23)CC1` [Compound H-27, 4-(5-Phenylcarbamoyl-naphthalene-1-sulfonylamino)-piperidine-1-carboxylic acid ethyl ester] gave a Ki of less than 1000 nM. In the case of `Cc1ccccc1C(=O)Nc1ccc(S(=O)(=O)NC2CCCNC2)c2c1CCCC2` (racemic) [Compound E-28, (±)-2-Methyl-N-[4-(piperidin-3-ylsulfamoyl)-5,6,7,8-tetrahydro-naphthalen-1-yl]-benzamide], the Ki is reported as less than 500 nM. Compound `CCCC(=O)N1CCC(NS(=O)(=O)c2ccc(NC(=O)C3CCOCC3)c3ccccc23)CC1` [Compound D-20, Tetrahydro-pyran-4-carboxylic acid [4-(1-butyryl-piperidin-4-ylsulfamoyl)-naphthalen-1-yl]-amide] has a Ki of less than 500 nM. For `Cc1ccccc1C(=O)Nc1ccc(S(=O)(=O)N[C@@H]2CCN(C(=O)[C@@H]3CCCN3)C[C@H]2C)c2ccccc12` [Compound J-1, (3R,4R)-2-(S)-Methyl-N-{4-[3-methyl-1-(pyrrolidine-2-carbonyl)-piperidin-4-ylsulfamoyl]-naphthalen-1-yl}-benzamide], the Ki was less than 500 nM. For `Cc1ccccc1C(=O)Nc1ccc(S(=O)(=O)NC2CCN(C(=O)[C@@H]3CCCN3C)CC2)c2ccccc12` [Compound C-124, (S)-2-Methyl-N-{4-[1-(1-methyl-pyrrolidine-2-carbonyl)-piperidin-4-ylsulfamoyl]-naphthalen-1-yl}-benzamide], the Ki was less than 500 nM. With `CCCC(=O)N1CCC(NS(=O)(=O)c2cccc3c(C(=O)Nc4cccc(C)c4C)cccc23)CC1` [Compound H-37, 5-(1-Butyryl-piperidin-4-ylsulfamoyl)-naphthalene-1-carboxylic acid (2,3-dimethyl-phenyl)-amide] the Ki was less than 500 nM. `CCCC(=O)N1CCCC(NS(=O)(=O)c2ccc(NC(=O)c3ccccc3C)c3ccccc23)C1` (racemic) [Compound C-114, (±)-N-[4-(I-Butyryl-piperidin-3-ylsulfamoyl)-naphthalen-1-yl]-2-methyl-benzamide] was tested, and the Ki was less than 500 nM. Compound `Cc1ccccc1C(=O)Nc1ccc(S(=O)(=O)N[C@H]2CCN(C(=O)C(C)(C)N)C[C@H]2C)c2ccccc12` [Compound J-8, (3R, 4S)-N-{4-[1-(2-Amino-2-methyl-propionyl)-3-methyl-piperidin-4-ylsuffamoyl]-naphthalen-1-yl}-2-methyl-benzamide] has a Ki of less than 500 nM. `CCOC(=O)N1CCC(NS(=O)(=O)c2ccc(NC(=O)c3ccccc3Cl)c3ccccc23)CC1` [Compound A-43, 4-[4-(2-Chloro-benzoylamino)-naphthalene-1-sulfonylamino]-piperidine-1-carboxylic acid ethyl ester] gave a Ki of less than 500 nM. Work on `CCOC(=O)N1CCC(NS(=O)(=O)c2ccc(NC(=O)c3ccccc3C)c3c2CCCC3=O)CC1` [Compound J-43, 4-[4-(2-Methyl-benzoylamino)-5-oxo-5,6,7,8-tetrahydro-naphthalene-1-sulfonylamino]-piperidine-1-carboxylic acid ethyl ester] yielded a Ki of less than 1000 nM. `Cc1ccccc1C(=O)Nc1ccc(S(=O)(=O)NCC2CCCCC2)c2c1CCCC2` [Compound E-27, N-[4-(Cyclohexylmethyl-sulfamoyl)-5,6,7,8-tetrahydro-naphthalen-1-yl]-2-methyl-benzamide] showed a Ki of less than 500 nM. With `Cc1ccccc1C(=O)Nc1ccc(S(=O)(=O)N[C@H]2CCN(C(=O)C3(N)CC3)C[C@H]2C)c2ccccc12` [Compound J-9, (3R, 4S)-N-{4-[1-(1-Amino-cyclopropanecarbonyl)-3-methyl-piperidin-4-ylsuffamoyl]-naphthalen-1-yl}-2-methyl-benzamide] the Ki was less than 500 nM. Compound `CCCC(=O)N1CCC(NS(=O)(=O)c2ccc(NC(=O)C3CCN(C)CC3)c3ccccc23)CC1` [Compound D-24, 1-Methyl-piperidine-4-carboxylic acid [4-(1-butyryl-piperidin-4-ylsulfamoyl)-naphthalen-1-yl]-amide] has a Ki of less than 30000 nM. `CC(C)(C)OC(=O)N1CCC(NS(=O)(=O)c2ccc(NC(=O)C3CCCC3)c3ccccc23)CC1` [Compound B-16, 4-[4-(Cyclopentanecarbonyl-amino)-naphthalene-1-sulfonylamino]-piperidine-1-carboxylic acid tert-butyl ester] gave a Ki of less than 1000 nM. `Cc1ccccc1C(=O)Nc1ccc(S(=O)(=O)NC2CCCNC2)c2ccccc12` (racemic) [Compound C-112, (±)-2-Methyl-N-[4-(piperidin-3-ylsulfamoyl)-naphthalen-1-yl]-benzamide] showed a Ki of less than 1000 nM. `CCOC(=O)N1CCC(NS(=O)(=O)c2cccc3c(C(=O)Nc4ccccc4Cl)cccc23)CC1` [Compound H-34, 4-[5-(2-chloro-phenylcarbamoyl)-naphthalene-1-sulfonylamino]-piperidine-1-carboxylic acid ethyl ester] gave a Ki of less than 500 nM. In the case of `Cc1ccccc1C(=O)Nc1ccc(S(=O)(=O)N[C@H]2CCN(C(=O)N(C)C)C[C@H]2C)c2ccccc12` (racemic) [Compound C-29, (±)-cis-3-Methyl-4-[4-(2-methyl-benzoylandno)-naphthalene-1-sulfonylamio]-piperidine-1-carboxylic acid dimethylamide], the Ki is reported as less than 500 nM. For `Cc1ccccc1C(=O)Nc1ccc(S(=O)(=O)N[C@@H]2CCN(C(=O)[C@H](C)N)C[C@H]2C)c2ccccc12` [Compound J-3, (3R, 4R)-N-{4-[1-(2-(S)-Amino-propionyl)-3-methyl-piperidin-4-ylsulfamoyl]-naphthalen-1-yl}-2-methyl-benzamide], the Ki was less than 500 nM. In the case of `CCOC(=O)N1CCC(NS(=O)(=O)c2ccc(CNC(=O)c3cccc(C)c3C)c3ccccc23)CC1` [Compound G-2, 4-{4-[(2,3-Dimethyl-benzoylamino)-methyl]-naphthalene-1-sulfonylamino}-piperidine-1-carboxylic acid ethyl ester], the Ki is reported as less than 500 nM. `Cc1ccccc1C(=O)Nc1ccc(S(=O)(=O)NC2CCN(C(=O)CN3CCCCC3)CC2)c2ccccc12` [Compound C-148, 2-Methyl-N-{4-[1-(2-piperidin-1-yl-acetyl)-piperidin-4-ylsulfamoyl]-naphthalen-1-yl}-benzamide] showed a Ki of less than 30000 nM. Work on `CCCC(=O)N1CC[C@H](NS(=O)(=O)c2ccc(NC(=O)c3c(C)noc3C)c3ccccc23)[C@H](C)C1` (racemic) [Compound D-5, (±)-(cis)-3,5-Dimethyl-isoxazole-4-carboxylic acid [4-(1-butyryl-3-methyl-piperidin-4-ylsulfamoyl)-naphthalen-1-yl]-amide] yielded a Ki of less than 500 nM. In the case of `Cc1ccccc1C(=O)Nc1ccc(S(=O)(=O)NC2CCN(C(=O)CN3CCCC3)CC2)c2ccccc12` [Compound C-147, 2-Methyl-N-{4-[1-(2-pyrrolidin-1-yl-acetyl)-piperidin-4-ylsulfamoyl]-naphthalen-1-yl}-benzamide], the Ki is reported as less than 500 nM. `O=C(Nc1ccc(S(=O)(=O)NC2CCNCC2)c2ccccc12)c1ccccc1F` [Compound C-99, 2-Fluoro-N-[4-(piperidin-4-ylsulfamoyl)-naphthalen-1-yl]-benzamide] showed a Ki of less than 500 nM. `Cc1cccc(NC(=O)c2ccc(S(=O)(=O)NC3CCN(C(=O)OC(C)(C)C)CC3)c3ccccc23)c1C` [Compound F-13, 4-[4-(2,3-Dimethyl-phenylcarbamoyl)-naphthalene-1-sulfonylamino]-piperidine-1-carboxylic acid tert-butyl ester] showed a Ki of less than 500 nM. Compound `Cc1ccccc1C(=O)Nc1ccc(S(=O)(=O)N[C@@H]2CCN(C(=O)[C@H](C)N)C[C@@H]2C)c2ccccc12` [Compound J-4, (3S, 4R)-N-{4-[1-(2-(S)-Amino-propionyl)-3-methyl-piperidin-4-ylsulfamoyl]-naphthalen-1-yl}-2-methyl-benzamide] has a Ki of less than 500 nM. `CCNC(=O)N1CCC(NS(=O)(=O)c2ccc(NC(=O)c3ccccc3C)c3ccccc23)C1` (racemic) [Compound C-52, (±)-3-[4-(2-Methyl-benzoylamino)-naphthalene-1-sulfonylamino]-pyrrolidine-1-carboxylic acid ethylamide] was tested, and the Ki was less than 500 nM.
